Measured values reported in ChEMBL document CHEMBL1156187, “Discovery of a selective small-molecule melanocortin-4 receptor agonist with efficacy in a pilot study of sexual dysfunction in humans” (J Med Chem, 2010).

Key:
Melanocortin receptor 4 [1] = target: T1, Melanocortin receptor 4 (Homo sapiens, UniProt P32245); assay: Agonist activity at human recombinant MC4 receptor expressed in CHO cells by cAMP responsive beta lactamase reporter gene assay; type: functional, cell-based
[2] = Lipophilicity, log D at pH 7.4; type: physicochemical; settings: buffer
[3] = Intrinsic clearance in human liver microsome measured per mg of protein; type: ADME; settings: liver microsomes
Melanocortin receptor 3 [4] = target: T2, Melanocortin receptor 3 (Homo sapiens, UniProt P41968); assay: Agonist activity at human recombinant MC3 receptor expressed in CHO cells assessed as cAMP accumulation by enzyme fragment complementation assay; type: functional, cell-based
T2 sequence (P41968 whole entry, the tested form may be a part): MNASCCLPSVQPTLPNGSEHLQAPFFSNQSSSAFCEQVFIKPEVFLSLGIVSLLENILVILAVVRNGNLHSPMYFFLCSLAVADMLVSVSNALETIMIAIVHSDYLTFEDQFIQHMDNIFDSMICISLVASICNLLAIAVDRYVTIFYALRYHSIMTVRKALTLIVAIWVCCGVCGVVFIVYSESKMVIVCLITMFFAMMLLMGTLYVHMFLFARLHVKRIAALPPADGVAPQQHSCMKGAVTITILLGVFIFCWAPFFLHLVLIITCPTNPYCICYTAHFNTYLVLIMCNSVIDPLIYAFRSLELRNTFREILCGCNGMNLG

Melanocortin receptor 3 [5] = target: T2, Melanocortin receptor 3; assay: Agonist activity at human recombinant MC3 receptor expressed in CHO cells assessed as cAMP accumulation by enzyme fragment complementation assay relative to […]; type: functional, cell-based
Melanocortin receptor 4 [6] = target: T1, Melanocortin receptor 4; assay: Displacement of [125I]-MT-II from human recombinant MC4 receptor expressed in CHO cells by scintillation counting
[7] = target: T3, Melanocyte-stimulating hormone receptor (Homo sapiens, UniProt Q01726); assay: Agonist activity at human recombinant MC1 receptor expressed in HEK293 cells assessed as cAMP accumulation by enzyme fragment complementation assay relative to alpha melanocyte-stimulating hormone; type: functional, cell-based
Target sequence in this assay (Q01726 whole entry, looked up, the tested form may be a part): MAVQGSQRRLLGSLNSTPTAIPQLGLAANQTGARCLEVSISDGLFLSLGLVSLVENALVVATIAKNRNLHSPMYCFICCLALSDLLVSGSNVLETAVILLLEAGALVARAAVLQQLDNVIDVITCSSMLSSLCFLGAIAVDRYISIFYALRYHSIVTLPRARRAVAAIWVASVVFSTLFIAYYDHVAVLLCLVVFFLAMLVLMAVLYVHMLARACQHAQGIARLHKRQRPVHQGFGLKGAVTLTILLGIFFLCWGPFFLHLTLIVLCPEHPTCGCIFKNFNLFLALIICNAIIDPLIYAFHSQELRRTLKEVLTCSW

[8] = target: T3, Melanocyte-stimulating hormone receptor; assay: Agonist activity at human recombinant MC1 receptor expressed in HEK293 cells assessed as cAMP accumulation by enzyme fragment complementation assay; type: functional, cell-based
Target sequence in this assay (Q01726 whole entry, the tested form may be a part): as the sequence (Q01726 whole entry, looked up, the tested form may be a part) above

Melanocortin receptor 5 [9] = target: T4, Melanocortin receptor 5 (Homo sapiens, UniProt P33032); assay: Agonist activity at human recombinant MC5 receptor expressed in HEK293 cells assessed as cAMP accumulation by beta lactamase reporter gene assay relative to alpha melanocyte-stimulating hormone; type: functional, cell-based
T4 sequence (P33032 whole entry): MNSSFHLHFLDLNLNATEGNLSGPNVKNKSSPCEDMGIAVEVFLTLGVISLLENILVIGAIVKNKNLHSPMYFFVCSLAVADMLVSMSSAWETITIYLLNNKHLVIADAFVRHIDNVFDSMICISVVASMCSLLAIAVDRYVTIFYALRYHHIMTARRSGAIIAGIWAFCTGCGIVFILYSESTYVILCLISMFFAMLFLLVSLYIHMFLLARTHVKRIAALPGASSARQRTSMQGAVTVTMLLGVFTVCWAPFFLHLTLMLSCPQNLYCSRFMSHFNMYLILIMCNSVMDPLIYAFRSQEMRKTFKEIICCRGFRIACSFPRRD

Melanocortin receptor 5 [10] = target: T4, Melanocortin receptor 5; assay: Agonist activity at human recombinant MC5 receptor expressed in HEK293 cells assessed as cAMP accumulation by beta lactamase reporter gene assay; type: functional, cell-based

T1 sequence (P32245 whole entry): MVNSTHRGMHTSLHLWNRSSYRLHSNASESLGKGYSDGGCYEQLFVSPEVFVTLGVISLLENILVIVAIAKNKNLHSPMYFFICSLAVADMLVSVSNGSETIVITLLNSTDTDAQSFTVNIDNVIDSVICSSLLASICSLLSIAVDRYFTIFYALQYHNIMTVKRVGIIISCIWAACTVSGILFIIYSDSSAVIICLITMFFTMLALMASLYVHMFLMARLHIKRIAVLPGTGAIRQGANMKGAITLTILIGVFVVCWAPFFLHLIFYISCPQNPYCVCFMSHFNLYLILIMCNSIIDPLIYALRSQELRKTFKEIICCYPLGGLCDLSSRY

| EC50 (Melanocortin receptor 4 [1]) [nM] | logD [2] | microsomal CLint [3] [µL/min/mg] | also measured | Structure (SMILES) |
| --- | --- | --- | --- | --- |
| 626 | – | – | – | CC(C)[C@@]1(O)[C@H](C)CN(C(=O)[C@@H]2CN(C(C)(C)C)C[C@H]2c2ccc(F)cc2F)C[C@@H]1C |
| 3900 | – | – | – | C[C@@H]1CN(C(=O)C2CN(C(C)(C)C)CC2c2ccc(F)cc2F)C[C@H](C)[C@@]1(O)c1ccccc1 (mixture of isomers) |
| 257 | 3.3 | 28 | – | CC(C)N1C[C@@H](C(=O)N2C[C@@H](C)[C@](O)(c3ccc(F)c(F)c3)[C@@H](C)C2)[C@H](c2ccc(F)cc2F)C1 |
| 147 | – | – | – | CCN1C[C@@H](C(=O)N2C[C@@H](C)[C@](O)(c3ccc(F)cc3)[C@@H](C)C2)[C@H](c2ccc(F)cc2F)C1 |
| 32 | – | – | EC50 (Melanocortin receptor 3 [4]): 500 nM; Emax (Melanocortin receptor 3 [5]): 81%; Ki (Melanocortin receptor 4 [6]): 62 nM; Emax [7]: 79%; EC50 [8]: 350 nM | C[C@@H]1CN(C(=O)[C@H]2CN(C3CCC3)C[C@@H]2c2ccc(F)cc2F)C[C@H](C)[C@@]1(O)c1ccccc1 |
| 220 | – | – | – | CC(C)N1C[C@@H](C(=O)N2C[C@@H](C)[C@](O)(c3ccc(F)cc3F)[C@@H](C)C2)[C@H](c2ccc(F)cc2F)C1 |
| 11100 | – | – | – | C[C@@H]1CN(C(=O)[C@@H]2CN(C(C)(C)C)C[C@H]2c2ccc(F)cc2F)C[C@H](C)[C@@]1(O)c1cncnc1 |
| 7 | 3 | > 440 | EC50 (Melanocortin receptor 3 [4]): 3660 nM; Emax (Melanocortin receptor 3 [5]): 75%; Ki (Melanocortin receptor 4 [6]): 52 nM; Emax [7]: 67%; EC50 [8]: 1850 nM | C[C@@H]1CN(C(=O)[C@H]2CN(c3cccnn3)C[C@@H]2c2ccc(F)cc2F)C[C@H](C)[C@@]1(O)c1ccccn1 |
| 1170 | – | – | – | CC(C)(C)N1C[C@@H](C(=O)N2CCC(O)(c3ccccc3)CC2)[C@H](c2ccc(F)cc2F)C1 |
| > 10000 | – | – | – | C[C@@H]1CN(C(=O)[C@H]2CN(C(C)(C)C)C[C@@H]2c2ccc(F)cc2F)C[C@H](C)[C@@]1(O)c1ccccc1 |
| 81 | – | – | – | C[C@@H]1CN(C(=O)[C@H]2CN(CC3CC3)C[C@@H]2c2ccc(F)cc2F)C[C@H](C)[C@@]1(O)c1ccccc1 |
| 4 | 3.7 | 310 | – | C[C@@H]1CN(C(=O)[C@H]2CN(c3cccnn3)C[C@@H]2c2ccc(F)cc2F)C[C@H](C)[C@@]1(O)c1ccc(F)cc1 |
| 62 | – | – | Emax (Melanocortin receptor 5 [9]): 84%; EC50 (Melanocortin receptor 3 [4]): 10700 nM; Ki (Melanocortin receptor 4 [6]): 176 nM; Emax [7]: 93%; EC50 [8]: 6570 nM | C[C@@H]1CN(C(=O)[C@@H]2CN(C(C)(C)C)C[C@H]2c2ccc(F)cc2F)C[C@H](C)[C@@]1(O)c1ccc(F)cc1F |
| 108 | 4.1 | < 7 | – | C[C@@H]1CN(C(=O)[C@@H]2CN(C(C)(C)C)C[C@H]2c2ccc(F)cc2F)C[C@H](C)[C@@]1(O)c1ccc(C(F)(F)F)cc1 |
| 347 | – | – | – | C[C@@H]1CN(C(=O)[C@@H]2CN(C(C)(C)C)C[C@H]2c2ccc(F)cc2F)C[C@H](C)[C@@]1(O)c1ccc(C#N)cc1 |
| 73 | – | – | – | CC(C)CN1C[C@H](C(=O)N2C[C@@H](C)[C@](O)(c3ccccc3)[C@@H](C)C2)[C@@H](c2ccc(F)cc2F)C1 |
| 21 | 2.8 | > 440 | EC50 (Melanocortin receptor 3 [4]): 7480 nM; Emax (Melanocortin receptor 3 [5]): 79%; Ki (Melanocortin receptor 4 [6]): 56 nM; Emax [7]: 104%; EC50 [8]: 3900 nM | CCC[C@@]1(O)[C@H](C)CN(C(=O)[C@H]2CN(c3cccnn3)C[C@@H]2c2ccc(F)cc2F)C[C@@H]1C |
| 52 | – | – | – | CC(C)N1C[C@@H](C(=O)N2C[C@@H](C)[C@](O)(c3ccc(F)cc3)[C@@H](C)C2)[C@H](c2ccc(F)cc2F)C1 |
| 717 | – | – | EC50 (Melanocortin receptor 3 [4]): > 19100 nM; Ki (Melanocortin receptor 4 [6]): 1070 nM; EC50 (Melanocortin receptor 5 [10]): > 20000 nM; EC50 [8]: > 7810 nM | C[C@@H]1CN(C(=O)[C@@H]2CN(C)C[C@H]2c2ccc(F)cc2F)C[C@H](C)[C@@]1(O)c1ccccc1 |
| 130 | – | – | – | C[C@@H]1CN(C(=O)[C@@H]2CN(C)C[C@H]2c2ccc(F)cc2F)C[C@H](C)[C@@]1(O)c1ccc(Cl)cc1 |
| 6 | 3.3 | 52 | Emax (Melanocortin receptor 5 [9]): 74%; EC50 (Melanocortin receptor 3 [4]): 570 nM; Emax (Melanocortin receptor 3 [5]): 81%; Ki (Melanocortin receptor 4 [6]): 97 nM; EC50 (Melanocortin receptor 5 [10]): 1800 nM; EC50 [8]: > 6470 nM | C[C@@H]1CN(C(=O)[C@@H]2CN(C(C)(C)C)C[C@H]2c2ccc(F)cc2F)C[C@H](C)[C@@]1(O)c1cccc(F)c1 |
| 288 | – | 7 | – | C[C@@H]1CN(C(=O)[C@@H]2CNC[C@H]2c2ccc(F)cc2F)C[C@H](C)[C@@]1(O)c1ccc(F)c(F)c1 |
| 374 | 3.1 | 84 | – | COCCN1C[C@H](C(=O)N2C[C@@H](C)[C@](O)(c3ccccc3)[C@@H](C)C2)[C@@H](c2ccc(F)cc2F)C1 |
| 40 | 3.2 | 70 | – | CC(C)N1C[C@@H](C(=O)N2C[C@@H](C)[C@](O)(c3cccc(F)c3)[C@@H](C)C2)[C@H](c2ccc(F)cc2F)C1 |
